In US20250032580A1, “USE OF ADNF POLYPEPTIDES IN THERAPY” (RAMOT AT TEL-AVIV UNIVERSITY LTD., priority 2021, published 2025):

Key:
[1] = test system: SHANK3 mouse model (InsG3680 mutation); assay: Social recognition test; format: in vivo; conditions: NAP-treated SHANK3 mouse model
Description: To this end, mice with the ASD-linked InsG3680 mutation were used. Two behavioral assessments were performed on make mice: • 1) Open field behavior attesting to anxiety and depression (Open field behavioral assessment technology was previously described, e.g.); and • 2) Social recognition behavior, related to autistic traits (the social recognition test was previously described, e.g..
In the social recognition test, the results measured both time exploring and frequency exploring the mouse or cup, either directly or in the chamber where the mouse or cup only are present (FIG. 13).

[2] = test system: differentiated N1E-115 cells; assay: FRAP of mCherry-Tau (Tau-MT interaction); format: cell-based, mouse
Description: Cell culture—Mouse neuroblastoma NIE-115 cells were maintained in Dulbecco's modified Eagle's medium, 10% fetal bovine serum, 2 mM glutamine and 100 U ml—1 penicillin, […] ml—1 streptomycin (Biological Industries, Beit Haemek, Israel). The cells were incubated in 95% air/5% CO2 in a humidified incubator at 37° C.
Cell differentiation and co-transfection of overexpression plasmids—Cultured NIE-115 cells were plated on 35 mm dishes (81156, 60μ-Dish, Ibidi, Martinsried, Germany) at a concentration of 1.25×10^4 cells per dish and then were differentiated with reduced fetal bovine serum (2%) and DMSO (1.25%) containing medium for 5 days before transfection. 48 hrs before experiments N1E-115 cells were co-transfected with 1 μg EB3-RFP or mCherry-Tau (3R) plasmid with or without 2 μg of plasmids, coding to GFP conjugated to full-length human ADNP, or ADNP carried mutations. 1:3 ratios between total amount of transfected DNA and transfection reagent were used according to manufacture guidance (Lipofectamine2000, Thermo Fisher Scientific, Waltham, MA, USA) in all subsequent experiments.
Fluorescence recovery after photobleaching (FRAP)—Differentiated NIE-115 cells were transfected with mCherry-Tau with or without GFP-conjugated to full-length ADNP or mutated ADNP, and imaged 48 hrs after transfection. An ROI for photobleaching was drowned in the proximal cell branches. mCherry-Tau was bleached with a […], and fluorescence recovery was collected within wavelengths of 610-650 nm. 80 images were taken every 0.74 sec immediately after bleaching. After FRAP imaging all samples were also treated with NAP in final concentrations of 10^−12 M, and after 4 hrs time-lapse imaging was done again under the same conditions. FRAP imaging for assessment difference between NAP and SKIP (SEQ ID NO: 21) activity was performed after an hour of ZnCl2 treatment (400 μM final concentration; Sigma, Rehovot, Israel) with or without NAP/SKIP (10^−12 M final concentration). Fluorescence signals were quantified with Fiji, obtained data were normalized with easyFRAP [82, 83] and FRAP recovery curves were fitted by a one-phase exponential association function by GraphPad Prism6 (GraphPad Software, Inc., La Jolla, CA, USA) while samples with R^2<0.9 were excluded.
Next, the effect of full-length/truncated ADNP forms with or without NAP treatment on Tau-MT interaction was examined by fluorescence recovery after photobleaching (FRAP) (FIGS. 8A-C). FRAP was performed with mCherry-tagged Tau protein (FIG. 8A). […] Therefore, the immobile mCherry-Tau fraction reflects the rate of Tau association with MTs.

Tyr mice = assay: Fecal microbiota real-time PCR loads; format: in vivo, mouse; parameters: key to NAP efficacy: microbiota: corrections by NAP treatment (+)
Description: Microbiome—Fecal samples were collected from 12.2±0.19-week-old mice. Samples were prepared and analyzed as previously described (57). Microbiome data was analyzed after applying the logarithmic transformation.

SHANK3 mice [3] = assay: Grooming (repetitive behavior); format: in vivo, mouse; conditions: sham-treated vs NAP-treated SHANK3 mice; data not shown
Description: Repetitive behavior, a key autistic feature, was also evaluated by measuring grooming frequency and duration.

SHANK3 mice [4] = assay: Eubacteriaceae (EubV3) microbiota; format: in vivo, mouse; conditions: data not shown

## CC[C@H](C)[C@H](NC(=O)[C@H](CO)NC(=O)[C@@H](NC(=O)[C@@H]1CCCN1C(=O)[C@H](C)NC(=O)[C@@H](N)CC(N)=O)C(C)C)C(=O)N1CCC[C@H]1C(=O)N[C@@H](CCC(N)=O)C(=O)O [NAP, NAPVSIPQ]
[1]
  Social recognition, mouse vs cup exploration: normalization of behavior
[2]; cells expressing ADNP p.Glu830synfs*83, 10^−12 M, 4 hrs
  Tau-MT interaction (immobile mCherry-Tau fraction): significantly increased
[2]; cells expressing ADNP p.Lys408Valfs*31 SDM, 10^−12 M, 4 hrs
  Tau-MT interaction (Tau immobile fraction): prevented by NAP treatment
[2]; cells expressing ADNP p.Ser404*, 10^−12 M, 4 hrs
  Tau-MT interaction (immobile mCherry-Tau fraction): significantly increased
[2]; zinc 400 μM, 1 h, together with peptide 10^−12 M
  Tau immobile fraction under zinc: excessive impact
Tyr mice; Tyr mouse, first symbol of cell
  NAP efficacy: microbiota: +/+
Tyr mice; WT mice
  EubV3, BIF, Lacto, Entero loads: no effect on WT mice
Tyr mice; WT mice, data not shown
  Clostridium coccoides group (gCcoc) and Mouse intestinal Bacteroides (MIB) loads: other varying effects
Tyr mice; female Tyr mice
  Bifidobacterium genus (BIF) load: NAP correction
Tyr mice; male Tyr mice
  Total eubacterial load (EubV3): corrected with NAP treatment
SHANK3 mice [3]
  Grooming frequency: higher grooming frequency than did NAP-treated SHANK3 mice
SHANK3 mice [4]
  EubV3 trend to change as a consequence of the SHANK3 mutation: this trend was not observed in the treated mice
